Entries after “also recorded” stand apart in the source; their conditions may differ.

Type in all cases: cell-based, human
The subject of assay [1] is Toll-like receptor (TLR) RNA's (TLR1-10). Nature of the assay: qPCR of TLR transcription in PBMC's from AD patients cultured with Aβ and test agent. As to conditions: for up-regulation of TLR1-10 RNA: PBMCs from one AD patient (patient D, FIG. 1), Aβ plus agent overnight. On the procedure:
10 million PBMC's each of four AD patients (A, B, C, D) were treated overnight with no addition, Aβ (A, B, C, D; black bars) or with Aβ and bisdemethoxycurcumin (D, striped bar). Control subjects's (M, N, O) PBMC's were treated with no addition or Aβ (open bars). RNA was extracted and tested by qPCR, and the TLR ratio was determined as described in the Methods. The significance of differences between patients and controls (by Mann-Whitney test) are: TLR1 0.05; TLR2 0.05; TLR3 0.05; TLR4 0.08; TLR5 0.05; TLR6 0.077; TLR7 0.08; TLR8 0.05; TLR9 0.08; TLR10 0.05. The graphs show changes in receptors on 2-fold (log 2) scale.
(§1) RNA Isolation and qPCR. RNA was isolated as above from PBMC's (10 million) of each subject, which were cultured overnight with or without Aβ (2 μg/ml); and cDNA was synthesized using the iSCRIPT cDNA Synthesis Kit. The expression levels of the genes of interest were tested by qPCR on a real-time PCR detector and normalized to the levels of the housekeeping gene 36B4 with the following primers: […]
SYBR Green reactions were carried out with the IQ SYBR Green mix. Reactions were run on a Continuous Fluorescence detector and analyzed. The relative quantities of the gene tested per sample were calculated against 36B4 using the ΔΔC(T) formula as previously described. The results are expressed as log [MGAT (or TLR) RNA (with Aβ)/MGAT (or TLR) RNA (without Aβ)] for each specimen. For evaluation of curcumins or curcumin analogs the above assay was used. […] The expression levels of Mgat3 or TLR transcription was quantified and normalized to the levels of housekeeping genes and compared to cells treated with curcumin or analogs with or without Aβ vs. untreated cells. The amount of Mgat3 (or TLR) RNA with Aβ and test agent/Mgat3 (or TLR) RNA withal alone)] for each cell preparation in the presence of test agent was determined. […]
Curcumins. […] The expression levels of Mgat3 or TLR transcription was quantified and normalized to the levels of housekeeping genes and compared to cells treated with curcumin or analogs without Aβ. […]
On the technique in general: Real-time PCR tracks product formation cycle by cycle.

For assay [2], the system named is TLR2, TLR3 and TLR4 on monocytes. Nature of the assay: Flow cytometry of TLR expression on monocytes of PBMCs from an AD patient. For orientation: Flow cytometry measures light scatter and fluorescence of single cells or particles in a stream.
The subject of the next assay is Mgat3 transcription. Nature of the assay: qPCR of Mgat3 transcription in PBMC's from AD patients cultured with Aβ and test agent. As for the experimental part:
as §1
SYBR Green reactions were carried out with the IQ SYBR Green mix. Reactions were run on a Continuous Fluorescence detector and analyzed. The relative quantities of the gene tested per sample were calculated against 36B4 using the ΔΔC(T) formula as previously described. The results are expressed as log [MGAT (or TLR) RNA (with Aβ)/MGAT (or TLR) RNA (without Aβ)] for each specimen. For evaluation of curcumins or curcumin analogs the above assay was used. Curcumins (0.1 uM) were added to PBMC's from AD patients cultured overnight with ±Aβ as above. After 2 hours of incubation with the curcumin or analog, RNA was isolated and cDNA was synthesized as above. The expression levels of Mgat3 or TLR transcription was quantified and normalized to the levels of housekeeping genes and compared to cells treated with curcumin or analogs with or without Aβ vs. untreated cells. The amount of Mgat3 (or TLR) RNA with Aβ and test agent/Mgat3 (or TLR) RNA withal alone)] for each cell preparation in the presence of test agent was determined. The ratio was used to determine the potency of the agent tested. Potent compounds had elevated ratios (>1.5) and were used to rank the relative activity of each test agent (Table 2).
Curcumins. […] Crude natural product derived materials (i.e., curcuminoids) enhance phagocytosis of Aβ by macrophages from AD patients in approximately 50% of the cases examined. […] The material was purified to near homogeneity and identified by LCMS as bisdesmethoxycurcumin on the basis of its molecular ion and fragmentation pattern. To verify the biological activity of this minor constituent, bisdesmethoxycurcumin was chemically synthesized and tested in the phagocytosis and transcription assays described above (see Example 4). Compared with curcumin, both the bisdesmethoxycurcumin material isolated by chromatography and the chemically synthesized bisdesmethoxycurcumin material optimally stimulated phagocytosis at 0.1 μM. To determine whether functional improvement would be accompanied by biochemical changes, we tested transcriptional up-regulation of MGA T3 and TLR's in PBMC's from AD patients and controls in the presence of Aβ with bisdesmethoxycurcumin (0.1 μM) in comparison to Aβ alone. […] Thus, curcumins (0.1 uM) were added to PBMC's from AD patients cultured overnight with Aβ as above. After 2 hours of incubation, RNA was isolated and cDNA was synthesized. The expression levels of Mgat3 or TLR transcription was quantified and normalized to the levels of housekeeping genes and compared to cells treated with curcumin or analogs without Aβ. The amount of Mgat3 (or TLR) RNA with test agent and Aβ)/Mgat3 (or TLR) RNA (with Aβ alone)] for each cell preparation in the presence of test agent was determined. The ratio was used to determine the potency of the agent tested. Potent compounds had elevated ratios (>1.5) and were used to rank the relative activity (Table 2).
Mgat3 and TLR transcription in cells from AD and control patients. We tested by qPCR Mgat3 and/0or TLR transcription in cells from AD patients and compared the results to those obtained from age-matched controls (Table 2). As discussed above, activation or up-regulation of macrophage Mgat3 or TLR's results in many functional outcomes, including the enhancement of […] and removal of Aβ, increased apoptosis, secretion of inflammatory cytokines, and other anti-AD antimicrobial activities. […] Thus, the ratio of Mgat3 or TLR transcription upon Aβ stimulation of AD versus control PBMCs provides an indicator and sensitive method to test the in vitro efficacy of drug candidates. […]

Assay [3] concerns macrophages of AD patients. Nature of the assay: Phagocytosis of FITC-amyloid-beta (1-42) by macrophages of AD patients. The text has this: Peripheral blood mononuclear cells (PBMC's) and macrophages. AD patients were recruited at the time of enrollment in a double-blind study of curcumin Complex 3 in progress at UCLA. The diagnostic criteria for AD satisfied the National Institute of Neurological and Communicative Disorders and the AD and Related Disorders Association criteria for probable Alzheimer's disease. Normal age-matched control subjects were recruited. PBMC's were isolated by the Ficoll Hypaque gradient technique from venous blood. To prepare macrophage slide cultures, 50,000 PBMC's were cultured in each well of an 8-chamber polystyrene vessel glass slide in Iscove's medium with 10% autologous serum until differentiated into adherent macrophages (7-14 days).
Phagocytosis assay and confocal microscopy. Macrophages were exposed to FITC-amyloid-beta (1-42) (2 μg/ml) overnight, fixed with 4% paraformaldehyde, permeabilized with 0.1% Triton X-100, blocked with 1% BSA in PBS and stained with Rab 5 or EEA1 antibodies by indirect immunofluorescence; lysosomes were stained intravitally by the Lyso-Tracker probe; macrophages were stained using anti-CD68; neurons were stained using anti-NeuN. The preparations were examined using fluorescence and confocal microscopy.
Ability of monocytes to clear Aβ in the brain. Co-culture of freshly isolated monocytes with sections of AD frontal lobe to test the ability of monocytes to clear Aβ in the brain was done. One third of control monocytes became saturated with Aβ in 2 days and 100% in 4 days. […] Apoptosis of macrophages treated with Aβ was done with the SR-VAD-FMK polycaspase assay. Differentiated macrophages were treated with curcuminoids or analogs in the medium overnight and were then exposed to FITC-Aβ (1-42) to 2.5 μg/ml, incubated for 24 or 48 h and examined by fluorescence or confocal microscopy.
Curcuminoids reverse defective phagocytosis of amyloid-beta by macrophages of individual AD patients. […] Macrophages were visualized using anti-CD68 or fluorescent phalloidin with a fluorescence microscope.

[4] abbreviates: 0.1 μM, PBMC's from AD patients.

As to `O=C(C=Cc1ccc(O)cc1)C=C(O)C=Cc1ccc(O)cc1` [Compound 5a, 5-Hydroxy-1,7-bis-(4-hydroxy-phenyl)-hepta-1,4,6-trien-3-one], the “transcription of TLRs with Aβ and agent in comparison to Aβ alone” value in assay [1] (setting [4]) is listed as “up-regulated in all four patients examined”. Further, the “up-regulation of TLR1-10 RNA” value in assay [1] (listed as Bisdemethoxycurcumin) is reported as “all 10 TLRs were up-regulated”; in assay [1] (listed as bisdemethoxycurcumin) it was “up-regulation”. Besides, the “expression of TLR2, TLR3 and TLR4 on monocytes” value in assay [2] is “increased expression”. Also, the “transcription of MGAT3 with Aβ and agent in comparison to Aβ alone” value with Mgat3 transcription (setting [4]) is given as “up-regulated in all four patients examined”. Further, in the assay with Mgat3 transcription (Homo sapiens, curcumins 0.1 uM, PBMC's from AD patients cultured overnight with Aβ, 2 hours incubation, qPCR, read-out: Relative Activity: relative ratio of Mgat3 transcription in AD/Mgat3 transcription in control cells), the fold induction at 0.1 µM was 1.5 to 2. The “relative Mgat3 ratios” value in the assay with Mgat3 transcription (repeat assays) was 3-5 fold. The “effect on Aβ phagocytosis/uptake by AD macrophages” value in assay [3] (in vitro treatment during Aβ phagocytosis, fluorescence/confocal microscopy, listed as bisdemethoxycurcumin) is “enhanced the phagocytosis of Aβ by macrophages of AD patients; also recorded: considerable activity”. Besides, in assay [3] (isolated and chemically synthesized material, compared with curcumin), the “concentration that optimally stimulated phagocytosis” value was 0.1 µM.

The values above are taken from patent US20090263492A1, “Diagnostic Methods and Genetic Markers for Alzheimer Disease” (priority 2006, published 2009).
